pEC50, pIC50, pKi: −log10 of the molar value.
How the values were obtained:
[1] = tested on: Ishikawa human endometrial tumor cells; assay: Ishikawa Alkaline Phosphatase Assay; format: cell-based; conditions: for pEC50 / pIC50: Homo sapiens, Ishikawa; for pEC50 / Agonist % Eff: agonist mode; for pIC50 / % Eff: antagonist mode; for pIC50: with E2 (1 nM); for Agonist % Eff: % efficacy versus the response to Tamoxifen; for % Eff: % efficacy versus E2 (1 nM) alone
Text: Ishikawa Alkaline Phosphatase Assay
Ishikawa human endometrial tumor cells are maintained in MEM (minimum essential medium, with Earle's salts and L-Glutamine, Gibco BRL, Gaithersburg, Md.), supplemented with 10% fetal bovine serum (FBS) (V/V), (Gibco BRL). One day prior to assay, growth media is changed to assay medium, DMEM/F-12 (3:1) (Dulbecco's Modified Eagle Medium: Nutrient Mixture F-12, 3:1 Mixture, phenol red-free, Gibco BRL) supplemented with 5% dextran coated charcoal stripped fetal bovine serum (DCC-FBS) (Hyclone, Logen, Utah), L-Glutamine (2 mM), MEM sodium pyruvate (1 mM), HEPES (N-[2-hydroxyethyl]piperazine-N′-[2-ethanesulfonic acid] 2 mM) all from Gibco BRL). After an overnight incubation, ishikawa cells are rinsed with Dulbecco's
Phosphate Buffered Saline (1×) (D-PBS) without Ca^+2 and Mg^+2 (Gibco BRL), and typsinized by a 3 minute incubation with 0.25% Trypsin/EDTA, phenol red-free (Gibco BRL). Cells are resuspended in assay medium and adjusted to 250,000 cells/ml. Approximately 25,000 cells in a 100 ul media are added to flat-bottom 96 wells microculture plates (Costar 3596) and incubated at 37° C. in a 5% CO2 humidified incubator for 24 hours. The next day, serial dilutions of compounds are prepared in assay medium (at 6 times the final concentration in the assay). The assay is run in dual mode, agonist and antagonist modes. For the agonist mode, plates receive 25 μl/well of assay medium followed by 25 μl/well of diluted compounds (at 6× the final concentrations). For the antagonist mode, plates receive 25 μl/well of 6 nM E2 (β-Estradiol, Sigma, St. Louis, Mo.) followed by 25 μl/well of diluted compounds (at 6× the final concentrations). After an additional 48-hour incubation at 37° C. in a 5% CO2 humidified incubator, media is aspirated from wells and 100 μl fresh assay medium is added to each microculture. Serial dilutions of compounds are prepared and added to the cells as described above. After an additional 72 hour incubation at 37° C. in a 5% CO2 humidified incubator, the assay is quenched by removing media and rinsing plates twice in Dulbecco's Phosphate Buffered Saline (1×) (D-PBS) (Gibco BRL). The plates are dried for 5 min and frozen at −70° C. for at least 1 hour. The plates are then removed from the freezer and allowed to thaw at room temperature. To each well, 100 μl of 1-Step™ PNPP (Pierce Chemical Company, Rockford, Ill.) is added. After a 20-minute incubation, plates are read on a spectophotometer at 405 nm. The data is fitted to a linear interpolation to derive EC50 (for agonist mode) or IC50 (for antagonist mode) values. For the agonist mode, a % efficacy for each compound is calculated versus the response to Tamoxifen. For the antagonist mode, a % efficacy for each compound is calculated versus E2 (1 nM) alone.

[2] = molecular target: T1, ERbeta receptor (PanVera) (Homo sapiens, UniProt Q92731); assay: ER competition binding assay (3H-Estradiol), ERbeta; conditions: IC50 converted to Ki by Cheng-Prusoff; 3H-Estradiol competition; A = class at 10 microMolar; read-out: Ki (ERβ)
T1 construct: purchased PanVera
Experimental: (§1) Competition binding assay is run in a buffer containing 50 mM Hepes, pH 7.5, 1.5 mM EDTA, 150 mM NaCl, 10% glycerol, 1 mg/ml ovalbumin and 5 mM DTT, using 0.025 μCi per well ^3H-Estradiol(NEN #NET517 at 118 Ci/mmol, 1 mCi/ml), 10 ng/well ERAlpha or ERbeta receptor (PanVera). Competing compounds are added at 10 different concentrations. Non-specific binding is determined in the presence of 1 μM of 17-B Estradiol. The binding reaction (140 μl) is incubated for 4 hours at room temperature, then 70 μl of cold DCC buffer is added to each reaction (DCC buffer contains per 50 ml of assay buffer, 0.75 g of charcoal (Sigma) and 0.25 g of dextran (Pharmacia)). Plates are mixed 8 minutes on an orbital shaker at 4° C. Plates are then centrifuged at 3,000 rpm at 4° C. for 10 minutes. An aliquot of 120 μl of the-mix is transferred to another 96-well, white flat bottom plate (Costar) and 175 μl of Wallac Optiphase “Hisafe 3” scintillation fluid is added to each well. Plates are sealed and shaken vigorously on an orbital shaker. After an incubation of 2.5 hrs, read plates in a Wallac Microbeta counter. […] The Kd for ^3H-Estradiol is determined by saturation binding to ER alpha and ER beta receptors. The IC50 values for compounds are converted to Ki using Cheng-Prusoff equation and the Kd determined by saturation binding assay.

[3] = tested on: MCF-7 breast adenocarcinoma cells; assay: MCF-7 Proliferation Assay; format: cell-based; conditions: antagonist mode, E2 10 pM, 14C-thymidine, B = class at 1 micromolar; for pIC50: Homo sapiens, MCF7
Experimental: MCF-7 Proliferation Assay
MCF-7 breast adenocarcinoma cells (ATCC HTB 22) are maintained in MEM (minimal essential medium, phenol red-free, Gibco BRL) supplemented with 10% fetal bovine serum (FBS) (VN), L-glutamine (2 mM), sodium pyruvate (1 mM), HEPES ((N-[2-hydroxyethyl]piperazine-N′-[2-ethanesulfonic acid]) 10 mM}, non-essential amino acids(0.1 mM)and Penicillin Streptomycin(1×). Seven days prior to assay, MCF-7 cells are switched to assay media which is the same as maintenance medium except supplemented with 10% dextran-coated charcoal-stripped fetal bovine serum (DCC-FBS) assay medium in place of 10% FBS. MCF-7 cells are removed from flasks using 10× Trypsin EDTA (phenol red free, Gibco BRL) and diluted to 1× in (Ca++/Mg++ free HBSS (phenol red-free). Cells are adjusted to 80,000 cells/ml in assay medium. Approximately 8,000 cells (100 μl) are added to each well in 96 well Cytostar T scintillation plates (Amersham) and incubated at 37° C. in a 5% CO2 humidified incubator for 24 hours to allow cell adherence and equilibration after transfer. Serial dilutions of drugs are prepared in assay medium at 4× the final desired concentration). A 50 μl aliquot of drug dilutions (at 4× the final assay concentration) is transferred to duplicate wells followed by 50 μl assay medium for the agonist mode or 50 μl of 40 pM of E2 for the antagonist mode to a final volume of 200 μl. For each of the agonist plates, a basal level (media) and a maximum stimulated level (with 1 μM E2) is determined. For each of the antagonist plates, a basal level (media) and a E2 (10 pM) alone control is determined. After an additional 48 hours at 37° C. in a 5% CO2 humidified incubator, 20 μl of assay medium containing 0.01 μCi of ^14C-thymidine (52 mCi/mmol, […], Amersham) is added to each well. The plates are incubated overnight in the same incubator and then counted on the Wallac Microbeta counter. […] For the agonist mode, an EC50 and percent of maximum E2 stimulation and concentration of maximum stimulation is calculated.

[4] = molecular target: T2, ERAlpha receptor (PanVera) (Homo sapiens, UniProt P03372); assay: ER competition binding assay (3H-Estradiol), ERalpha; conditions: IC50 converted to Ki by Cheng-Prusoff; 3H-Estradiol competition; A = class at 10 microMolar; read-out: Ki (ERα)
T2 construct: purchased PanVera
T2 sequence (P03372 1-595): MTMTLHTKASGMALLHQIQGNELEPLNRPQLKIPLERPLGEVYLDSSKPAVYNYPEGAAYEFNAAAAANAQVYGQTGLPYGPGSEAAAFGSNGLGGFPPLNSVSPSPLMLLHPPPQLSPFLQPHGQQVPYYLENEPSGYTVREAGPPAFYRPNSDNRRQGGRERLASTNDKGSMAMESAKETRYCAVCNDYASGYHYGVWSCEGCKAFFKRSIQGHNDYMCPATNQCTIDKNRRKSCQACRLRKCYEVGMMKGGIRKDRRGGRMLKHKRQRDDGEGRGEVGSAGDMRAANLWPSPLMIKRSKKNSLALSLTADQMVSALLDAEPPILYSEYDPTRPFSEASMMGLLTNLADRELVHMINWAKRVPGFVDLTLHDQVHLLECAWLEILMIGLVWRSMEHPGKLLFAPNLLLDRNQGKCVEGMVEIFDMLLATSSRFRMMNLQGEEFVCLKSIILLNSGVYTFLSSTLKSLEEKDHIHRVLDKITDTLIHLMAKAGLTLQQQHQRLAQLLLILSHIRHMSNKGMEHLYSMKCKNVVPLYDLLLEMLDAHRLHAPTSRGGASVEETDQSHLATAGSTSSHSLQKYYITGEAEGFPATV
Experimental: as §1

T1 sequence (Q92731 whole entry): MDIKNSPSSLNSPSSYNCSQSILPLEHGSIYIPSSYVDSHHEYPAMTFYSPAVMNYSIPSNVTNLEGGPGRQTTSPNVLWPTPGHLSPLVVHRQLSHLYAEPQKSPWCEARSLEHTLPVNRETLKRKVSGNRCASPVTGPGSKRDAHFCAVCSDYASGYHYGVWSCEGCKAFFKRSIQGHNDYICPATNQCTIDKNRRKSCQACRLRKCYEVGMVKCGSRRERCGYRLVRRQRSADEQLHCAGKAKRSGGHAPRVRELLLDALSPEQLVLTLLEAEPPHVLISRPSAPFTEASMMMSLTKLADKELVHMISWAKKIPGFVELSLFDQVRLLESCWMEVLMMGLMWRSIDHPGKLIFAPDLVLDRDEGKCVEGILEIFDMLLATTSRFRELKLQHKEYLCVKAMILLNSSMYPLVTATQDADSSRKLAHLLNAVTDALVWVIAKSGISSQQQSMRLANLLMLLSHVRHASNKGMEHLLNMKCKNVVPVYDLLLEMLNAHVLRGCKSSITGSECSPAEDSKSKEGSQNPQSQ

| SMILES | pEC50 [1] | pIC50 [1] | pKi [2] | pIC50 [3] | pKi [4] | Agonist % Eff [1] | % Eff [1] | IC50 (MCF7) [3] |
| --- | --- | --- | --- | --- | --- | --- | --- | --- |
| Oc1ccc2c(c1)CCC(c1ccccc1)N2Cc1ccc(OCCN2CCCCC2)cc1 (stereo not drawn) [Example 8, 2-Phenyl-1-[4-(2-piperidin-1-yl-ethoxy)-benzyl]-1,2,3,4-tetrahydroquinolin-6-ol] | 7.55 | 6.15 | 8.39 | 6.27 | 8.89 | 31% | 63% |  |
| Oc1ccc(C2CCc3cc(O)ccc3N2Cc2ccc(OCCN3CCCCC3)cc2)cc1 (stereo not drawn) [Example 7, 2-(4-Hydroxy-phenyl)-1-[4-(2-piperidin-1-yl-ethoxy)-benzyl)-1,2,3,4-tetrahydroquinolin-6-ol] | 6.66 |  |  | 6.32 | 9.40 | 28% | 17% |  |
| COc1ccc2c(c1)CCC(c1ccccc1)N2C(=O)c1ccc(OCCN2CCCCC2)cc1 (stereo not drawn) [Example 2] |  |  |  |  |  | −5% | 28% | B (B means < 50% inhibition at 1 micromolar) |

Continued, in another order:

| pEC50 [1] | pIC50 [1] | pKi [2] | pIC50 [3] | pKi [4] | SMILES | Agonist % Eff [1] | % Eff [1] | IC50 (MCF7) [3] |
| --- | --- | --- | --- | --- | --- | --- | --- | --- |
| 7.07 | 6.18 |  |  | 7.54 | O=C(c1ccc(OCCN2CCCCC2)cc1)N1c2ccc(O)cc2CCC1c1ccccc1 (stereo not drawn) [Example 4] | 44% | 47% |  |
| 6.85 | 6.05 | 8.23 | 6.41 |  | Oc1cccc(C2CCc3cc(O)ccc3N2Cc2ccc(OCCN3CCCCC3)cc2)c1 (stereo not drawn) [Example 12, 2-(3-Hydroxy-phenyl)-1-[4-(2-piperidin-1-yl-ethoxy)-benzyl]-1,2,3,4-tetrahydro-quinolin-6-ol] | 29% | 31% |  |
| 7.64 |  |  |  |  | COc1ccc(C2CCc3cc(OC)ccc3N2C(=O)c2ccc(OCCN3CCCCC3)cc2)cc1 (stereo not drawn) [Example 1, [6-Methoxy-2-(4-methoxyphenyl)-3,4-dihydro-2H-quinolin-1-yl]-[4-4-(2-piperidin-1-yl-ethoxy)phenyl]methanone] | 18% | 18% | B^† (B means < 50% inhibition at 1 micromolar) |
| 6.62 |  | 5.94 | 6.00 | 7.06 | O=C(c1ccc(OCCN2CCCCC2)cc1)N1c2ccc(O)cc2CCC1c1ccc(O)cc1 (stereo not drawn) [Example 3] | 29% | 17% |  |
